Source: patent US9908895B2, “Tricyclic fused thiophene derivatives as JAK inhibitors” (Incyte Corporation, priority 2012, dated 2018)
Structures can show the parent of a compound that is named as a salt. Where two headings read alike, the source gives them in different places.

Experiments:
Type in all cases: biochemical
[1] = biological target: human JAK1 (Homo sapiens, UniProt P23458); experiment: In vitro JAK kinase assay (HTRF), JAK1; details: 1 mM ATP
In short: (§1)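 Baculovirus-expressed catalytic domains (JAK1 a.a. 837-1142, JAK2 a.a. 828-1132) phosphorylate 500 nM biotinylated peptide at 1 mM ATP, Tris pH 7.8, 1 h at room temperature. EDTA stop and HTRF detection with Eu-Py20/SA-APC; IC50 values derived.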

[2] = biological target: human JAK2 (Homo sapiens (Human), UniProt O60674); experiment: In vitro JAK kinase assay (HTRF), JAK2; details: 1 mM ATP
Chain of human JAK2 (O60674 828-1132): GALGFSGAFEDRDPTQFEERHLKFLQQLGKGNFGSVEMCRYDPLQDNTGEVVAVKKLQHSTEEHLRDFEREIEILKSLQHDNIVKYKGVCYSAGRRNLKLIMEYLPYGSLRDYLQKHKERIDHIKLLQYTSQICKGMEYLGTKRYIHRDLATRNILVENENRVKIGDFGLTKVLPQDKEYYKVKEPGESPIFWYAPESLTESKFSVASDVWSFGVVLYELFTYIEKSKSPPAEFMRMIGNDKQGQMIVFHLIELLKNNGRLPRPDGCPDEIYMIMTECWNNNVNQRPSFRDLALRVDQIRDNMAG
Method: Compounds herein were tested for inhibitory activity of JAK targets according to the following in vitro assay described in Park et al., Analytical Biochemistry 1999, 269, 94-104. The catalytic domains of human JAK1 (a.a. 837-1142), JAK2 (a.a. 828-1132) and JAK3 (a.a. 781-1124) were expressed using baculovirus in insect cells and purified. The catalytic activity of JAK1, JAK2 or JAK3 was assayed by measuring the phosphorylation of a biotinylated peptide. The phosphorylated peptide was detected by homogenous time resolved fluorescence (HTRF). IC50s of compounds were measured for each kinase in the 40 μL reactions that contain the enzyme, ATP and 500 nM peptide in 50 mM Tris (pH 7.8) buffer with 100 mM NaCl, 5 mM DTT, and 0.1 mg/mL (0.01%) BSA. For the 1 mM IC50 measurements, ATP concentration in the reactions was 1 mM. Reactions were carried out at room temperature for 1 hour and then stopped with 20 μL 45 mM EDTA, 300 nM SA-APC, 6 nM Eu-Py20 in assay buffer (Perkin Elmer, Boston, Mass.). Binding to the Europium labeled antibody took place for 40 minutes and HTRF signal was measured on a PHERA star plate reader (BMG, Cary, N.C.). The Example compounds were each tested in the Example A assay (see Table 1 for data for the compounds of the examples as tested by the assay of Example A at 1 mM ATP).

[3] = tested on: human JAK1; experiment: In vitro JAK kinase assay (HTRF), JAK1; details: ratio of JAK2 IC50 to JAK1 IC50 at 1 mM ATP
In short: as §1

With `Cc1nc2cnc3ccsc3c2n1[C@@H]1CC[C@@H](CC#N)[C@H](O)C1.Cc1nc2cnc3ccsc3c2n1[C@H]1CC[C@H](CC#N)[C@@H](O)C1` (mixture of isomers) [41 (first peak), [(1R,2S,4S)-4-(2-Methyl-1H-imidazo[4,5-d]thieno[3,2-b]pyridin-1-yl)-2-hydroxycyclohexyl]acetonitrile and [(1S,2R,4R)-4-(2-methyl-1H-imidazo[4,5-d]thieno[3,2-b]pyridin-1-yl)-2-hydroxycyclohexyl]acetonitrile] the IC50 ([1]; JAK1 IC50 (nM)) was < 100 nM and the IC50 [2] was < 1 µM.
`Cc1nc2cnc3ccsc3c2n1[C@@H]1CC[C@@H](CC#N)[C@H](O)C1.Cc1nc2cnc3ccsc3c2n1[C@H]1CC[C@H](CC#N)[C@@H](O)C1` (mixture of isomers) [41 (second peak), [(1R,2S,4S)-4-(2-Methyl-1H-imidazo[4,5-d]thieno[3,2-b]pyridin-1-yl)-2-hydroxycyclohexyl]acetonitrile and [(1S,2R,4R)-4-(2-methyl-1H-imidazo[4,5-d]thieno[3,2-b]pyridin-1-yl)-2-hydroxycyclohexyl]acetonitrile] was tested, and the IC50 ([1]; JAK1 IC50 (nM)) was > 2000 nM.
For `Cc1nc2cnc3ccsc3c2n1[C@H]1CC[C@H](CC#N)[C@H](O)C1` (racemic) [Example 34, Mixture of [(1R,2R,4S)-2-hydroxy-4-(2-methyl-1H-imidazo[4,5-d]thieno[3,2-b]pyridin-1-yl)cyclohexyl]acetonitrile trifluoroacetate and [(1S,2S,4R)-2-hydroxy-4-(2-methyl-1H-imidazo[4,5-d]thieno[3,2-b]pyridin-1-yl)cyclohexyl]acetonitrile trifluoroacetate], the IC50 ([1]; read-out: JAK1 IC50) was < 1000 nM and the IC50 [2] was < 2 µM.
With `C[C@@H](O)c1nc2cnc3ccsc3c2n1C1CCNCC1F` (single isomer, unassigned) [9 (2nd peak)] the IC50 ([1]; read-out: JAK1 IC50) was < 1000 nM and the JAK2/JAK1 [3] was >10.
`C[C@@H](O)c1nc2cnc3ccsc3c2n1C1CCC(O)(CC#N)CC1` (single isomer, unassigned) [24 (second peak)] was tested, and the JAK2/JAK1 [3] was >10 and the IC50 [2] was > 2 µM.
`CC(C)OC(=O)NC[C@H]1CC[C@H](n2c([C@@H](C)O)nc3cnc4ccsc4c32)CC1` [Example 84, Isopropyl [(trans-4-{2-[(1R)-1-hydroxyethyl]-1H-imidazo[4,5-d]thieno[3,2-b]pyridin-1-yl}cyclohexyl)methyl]carbamate] was tested, and the JAK2/JAK1 [3] was >10.
In the case of `C[C@@H](O)c1nc2cnc3ccsc3c2n1[C@H]1CC[C@H](CNC(=O)OC2CCOC2)CC1` (stereo partly drawn) [Example 85, Tetrahydrofuran-3-yl [(trans-4-{2-[(1R)-1-hydroxyethyl]-1H-imidazo[4,5-d]thieno[3,2-b]pyridin-1-yl}cyclohexyl)methyl]carbamate], the JAK2/JAK1 [3] is reported as >10.
For `COC(=O)NC[C@H]1CC[C@H](n2c(CC#N)nc3cnc4ccsc4c32)CC1` [Example 86, Methyl({trans-4-[2-(cyanomethyl)-1H-imidazo[4,5-d]thieno[3,2-b]pyridin-1-yl]cyclohexyl}methyl)carbamate], the JAK2/JAK1 [3] was >10.
In the case of `CCOC(=O)NC[C@H]1CC[C@H](n2c(CC#N)nc3cnc4ccsc4c32)CC1` [Example 87, Ethyl({trans-4-[2-(cyanomethyl)-1H-imidazo[4,5-d]thieno[3,2-b]pyridin-1-yl]cyclohexyl}methyl)carbamate], the JAK2/JAK1 [3] is reported as >10.
In the case of `CC(C)OC(=O)NC[C@H]1CC[C@H](n2c(CC#N)nc3cnc4ccsc4c32)CC1` [Example 88, Isopropyl({trans-4-[2-(cyanomethyl)-1H-imidazo[4,5-d]thieno[3,2-b]pyridin-1-yl]cyclohexyl}methyl)carbamate], the JAK2/JAK1 [3] is reported as >10.
`CCC(=O)NC[C@H]1CC[C@H](n2c(CC#N)nc3cnc4ccsc4c32)CC1` [Example 89, N-({trans-4-[2-(Cyanomethyl)-1H-imidazo[4,5-d]thieno[3,2-b]pyridin-1-yl]cyclohexyl}methyl)propanamide] was tested, and the JAK2/JAK1 [3] was >10.
For `N#CCc1nc2cnc3ccsc3c2n1[C@H]1CC[C@H](CC#N)CC1` [Example 90, {1-[trans-4-(Cyanomethyl)cyclohexyl]-1H-imidazo[4,5-d]thieno[3,2-b]pyridin-2-yl}acetonitrile], the JAK2/JAK1 [3] was >10.
In the case of `N#CC[C@H]1CC[C@H](n2c(CO)nc3cnc4ccsc4c32)CO1` [Example 91, {(2R,5S)-5-[2-(Hydroxymethyl)-1H-imidazo[4,5-d]thieno[3,2-b]pyridin-1-yl]tetrahydro-2H-pyran-2-yl}acetonitrile], the JAK2/JAK1 [3] is reported as >10.
“((1R,2R,4S)-2-Hydroxy-4-{2-[(1R)-1-hydroxyethyl]-1H-imidazo[4,5-d]thieno[3,2-b]pyridin-1-yl}cyclohexyl)acetonitrile and ((1S,2S,4R)-2-hydroxy-4-{2-[(1R)-1-hydroxyethyl]-1H-imidazo[4,5-d]thieno[3,2-b]pyridin-1-yl}cyclohexyl)acetonitrile [36 (first peak)]” was tested, and the JAK2/JAK1 [3] was >10.
For “((1R,2R,4S)-2-Hydroxy-4-{2-[(1R)-1-hydroxyethyl]-1H-imidazo[4,5-d]thieno[3,2-b]pyridin-1-yl}cyclohexyl)acetonitrile and ((1S,2S,4R)-2-hydroxy-4-{2-[(1R)-1-hydroxyethyl]-1H-imidazo[4,5-d]thieno[3,2-b]pyridin-1-yl}cyclohexyl)acetonitrile [36 (second peak)]”, the JAK2/JAK1 [3] was >10.
For “((1R,2S,4S)-2-Hydroxy-4-{2-[(1R)-1-hydroxyethyl]-1H-imidazo[4,5-d]thieno[3,2-b]pyridin-1-yl}cyclohexyl)acetonitrile trifluoacetate and ((1S,2R,4R)-2-hydroxy-4-{2-[(1R)-1-hydroxyethyl]-1H-imidazo[4,5-d]thieno[3,2-b]pyridin-1-yl}cyclohexyl)acetonitrile trifluoacetate [37 (first peak)]”, the JAK2/JAK1 [3] was >10.
In the case of “((1R,2S,4S)-2-Hydroxy-4-{2-[(1R)-1-hydroxyethyl]-1H-imidazo[4,5-d]thieno[3,2-b]pyridin-1-yl}cyclohexyl)acetonitrile trifluoacetate and ((1S,2R,4R)-2-hydroxy-4-{2-[(1R)-1-hydroxyethyl]-1H-imidazo[4,5-d]thieno[3,2-b]pyridin-1-yl}cyclohexyl)acetonitrile trifluoacetate [37 (second peak)]”, the JAK2/JAK1 [3] is reported as >10.
In the case of “[(1R,2S,4S)-4-(2-Ethyl-1H-imidazo[4,5-d]thieno[3,2-b]pyridin-1-yl)-2-hydroxycyclohexyl]acetonitrile and [(1S,2R,4R)-4-(2-ethyl-1H-imidazo[4,5-d]thieno[3,2-b]pyridin-1-yl)-2-hydroxycyclohexyl]acetonitrile [40 (first peak)]”, the JAK2/JAK1 [3] is reported as >10.
